Our source for the MIC values is US4272437A, “Antibacterial agents, and 4-thio azetidinone intermediates” (priority 1979, dated 1981).

One assay relates to Ent. cloacae A-9656. Briefly: MIC, tube dilution, Enterobacter cloacae A9656. It is filed as cell-based. Conditions: Enterobacter cloacae, A9656, Enterobacter cloacae A9656; overnight 37° C.; read-out: Minimum Inhibitory Concentration (M.I.C.). An excerpt:
(§1) Representative compounds of the present invention were subjected to in vitro antibiotic screening against a variety of microorganisms.

The next assay concerns Pr. morganii A-15153. Briefly: MIC, tube dilution, Proteus morganii A15153. The note with it: Morganella morganii, A15153, Proteus morganii A15153; overnight 37° C.; read-out: Minimum Inhibitory Concentration (M.I.C.). It is filed as cell-based.
From the text: as §1

The next assay concerns Str. pneumoniae A-9585. Briefly: MIC, tube dilution, Streptococcus pneumoniae A9585. It is filed as cell-based. The note with it: Streptococcus pneumoniae, A9585, Str. pneumoniae A9585; overnight 37° C., Nutrient Broth; read-out: Minimum Inhibitory Concentration (M.I.C.).
From the text: as §1

A further assay concerns K. pneumoniae A-15130. In words: MIC, tube dilution, Klebsiella pneumoniae A15130. Type of assay: cell-based. Conditions: Klebsiella pneumoniae, A15130, K. pneumoniae A15130; overnight 37° C.; read-out: Minimum Inhibitory Concentration (M.I.C.).
From the text: as §1

A further assay deals with Str. pyogenes A-9604. In words: MIC, tube dilution, Streptococcus pyogenes A9604. Type of assay: cell-based. Conditions: Streptococcus pyogenes, A9604, Str. pyogenes A9604; overnight 37° C., Nutrient Broth; read-out: Minimum Inhibitory Concentration (M.I.C.).
From the text: as §1

For the next assay, the system named is Str. faecalis A-20688. Briefly: MIC, tube dilution, Streptococcus faecalis A20688. Type of assay: cell-based. Conditions: Enterococcus faecalis, A20688, Str. faecalis A20688; overnight 37° C.; read-out: Minimum Inhibitory Concentration (M.I.C.).
From the text: as §1

Another assay has as its system E. coli A-15119. Briefly: MIC, tube dilution, Escherichia coli A15119. It is filed as cell-based. The note with it: Escherichia coli, A15119, E. coli A15119; overnight 37° C.; read-out: Minimum Inhibitory Concentration (M.I.C.).
From the text: as §1

In a further assay the test system is Pr. mirabilis A-9900. In words: MIC, tube dilution, Proteus mirabilis A9900. Conditions: Proteus mirabilis, A9900, Proteus mirabilis A9900; overnight 37° C.; read-out: Minimum Inhibitory Concentration (M.I.C.). Type of assay: cell-based.
From the text: as §1

Another assay has as its system Ser. marcescens A-20019. In words: MIC, tube dilution, Serratia marcescens A20019. It is filed as cell-based. The note with it: Serratia marcescens, A20019, Serratia marcescens A20019; overnight 37° C.; read-out: Minimum Inhibitory Concentration (M.I.C.).
From the text: as §1

Another assay concerns Staph. aureus A-9537. In words: MIC, tube dilution, Staphylococcus aureus A9537. Conditions: Staphylococcus aureus, A9537, Staph. aureus A9537; overnight 37° C., Nutrient Broth; read-out: Minimum Inhibitory Concentration (M.I.C.). Type of assay: cell-based.
From the text: as §1

Assay [1] has as its system Staph. aureus (Pen-Res) A-9606. In words: MIC, tube dilution, Staphylococcus aureus A9606 (Pen-Res). Type of assay: cell-based. Conditions: Staphylococcus aureus, Staph. aureus A9606 (Pen-Res); overnight 37° C.; read-out: Minimum Inhibitory Concentration (M.I.C.).
From the text: as §1

Another assay deals with Ps. aeruginosa A-21213. In words: MIC, tube dilution, Pseudomonas aeruginosa A21213. Type of assay: cell-based. Conditions: Pseudomonas aeruginosa, A21213, Pseudomonas aeruginosa A21213; overnight 37° C.; read-out: Minimum Inhibitory Concentration (M.I.C.).
From the text: as §1

Another assay has as its system E. coli A-20341-1. In words: MIC, tube dilution, Escherichia coli A20341-1. The note with it: Escherichia coli, A203411, E. coli A20341-1; overnight 37° C.; read-out: Minimum Inhibitory Concentration (M.I.C.). It is filed as cell-based.
From the text: as §1

Assay [2] concerns Staph. aureus A-9537 and 50% serum. Briefly: MIC, tube dilution, Staph. aureus A9537 + 50% serum. Type of assay: cell-based, Staphylococcus aureus. Conditions: Staphylococcus aureus, overnight 37° C., read-out: Minimum Inhibitory Concentration (M.I.C.).
From the text: as §1

Assay [3] deals with Klebsiella species A20468. In words: MIC, tube dilution, Klebsiella species A20468. The note with it: Klebsiella species (K. pneumoniae) A20468; overnight 37° C.; read-out: Minimum Inhibitory Concentration (M.I.C.). It is filed as cell-based.
From the text: as §1

For a further assay, the system named is Ent. cloacae A-9659. In words: MIC, tube dilution, Enterobacter cloacae A9659. Type of assay: cell-based. Conditions: Enterobacter cloacae, A9659, Enterobacter cloacae A9659; overnight 37° C.; read-out: Minimum Inhibitory Concentration (M.I.C.).
From the text: as §1

A further assay deals with Ps. aeruginosa A-9843A. Briefly: MIC, tube dilution, Pseudomonas aeruginosa A9843A. Type of assay: cell-based. The note with it: Pseudomonas aeruginosa, A9843A, read-out: Minimum Inhibitory Concentration (M.I.C.), Pseudomonas aeruginosa A9843A; overnight 37° C.
From the text: as §1

For another assay, the system named is Proteus vulgaris A21559. In words: MIC, tube dilution, Proteus vulgaris A21559. The note with it: Proteus vulgaris, A21559, Proteus vulgaris A21559; overnight 37° C.; read-out: Minimum Inhibitory Concentration (M.I.C.). It is filed as cell-based.
From the text: as §1

For the next assay, the system named is Proteus rettgeri A21203. Briefly: MIC, tube dilution, Proteus rettgeri A21203. It is filed as cell-based. Conditions: Providencia rettgeri, A21203, Proteus rettgeri A21203; overnight 37° C.; read-out: Minimum Inhibitory Concentration (M.I.C.).
From the text: as §1

The subject of assay [4] is Staph. aureus (Meth-Res) A-15097. Briefly: MIC, tube dilution, Staphylococcus aureus A15097 (Meth-Res). Type of assay: cell-based. The note with it: Staphylococcus aureus, Staph. aureus A15097 (Meth-Res); overnight 37° C.; read-out: Minimum Inhibitory Concentration (M.I.C.).
From the text: as §1

≈ marks a conversion by molar mass, not a printed value.

On to `N=C(NCC1=C(C(=O)O)N2C(=O)CC2S1)c1ccccc1` (stereo not drawn) [Example 108, 2-Phenylimidoylaminomethylpenem-3-carboxylic Acid], for which the MIC in the assay on Ent. cloacae A-9656 turned out to be 125 µg/mL (≈ 412 µM); with Pr. morganii A-15153, 63 µg/mL (≈ 208 µM); with Str. pneumoniae A-9585 it was 0.25 µg/mL (≈ 0.824 µM); with K. pneumoniae A-15130 it was 125 µg/mL (≈ 412 µM); with Str. pyogenes A-9604, 0.25 µg/mL (≈ 0.824 µM); in the assay on Str. faecalis A-20688 it was 125 µg/mL (≈ 412 µM). For the same compound, the MIC in the assay on E. coli A-15119 came out at 63 µg/mL (≈ 208 µM); with Pr. mirabilis A-9900, 63 µg/mL (≈ 208 µM); in the assay on Ser. marcescens A-20019, 125 µg/mL (≈ 412 µM); in the assay with Staph. aureus A-9537 it was 0.25 µg/mL (≈ 0.824 µM); in [1], 16 µg/mL (≈ 52.7 µM); with Ps. aeruginosa A-21213, 125 µg/mL (≈ 412 µM). The MIC with E. coli A-20341-1 was over 125 µg/mL; in assay [2], 16 µg/mL; in assay [3], over 125 µg/mL; in the assay on Ent. cloacae A-9659, 125 µg/mL (≈ 412 µM); with Ps. aeruginosa A-9843A, 63 µg/mL (≈ 208 µM); with Proteus vulgaris A21559, 125 µg/mL (≈ 412 µM). The MIC with Proteus rettgeri A21203 is 63 µg/mL (≈ 208 µM); in [4] it was over 125 µg/mL.
For `CC(N)=NCC1=C(C(=O)O)N2C(=O)CC2S1` (stereo not drawn) [16 (5)], the MIC is 63 µg/mL (≈ 261 µM) in the assay with Ent. cloacae A-9656; 16 µg/mL (≈ 66.3 µM) in the assay with Pr. morganii A-15153; 1 µg/mL (≈ 4.14 µM) with Str. pneumoniae A-9585; 63 µg/mL (≈ 261 µM) in the assay with K. pneumoniae A-15130; 2 µg/mL (≈ 8.29 µM) with Str. pyogenes A-9604; over 63 µg/mL with Str. faecalis A-20688. The MIC in the assay with E. coli A-15119 came out at 16 µg/mL (≈ 66.3 µM); with Pr. mirabilis A-9900, 8 µg/mL (≈ 33.2 µM); in the assay on Ser. marcescens A-20019, 32 µg/mL (≈ 133 µM); with Staph. aureus A-9537 it was 4 µg/mL (≈ 16.6 µM); in assay [1] it was 32 µg/mL (≈ 133 µM); in the assay on Ps. aeruginosa A-21213 it was 32 µg/mL (≈ 133 µM). Also, the MIC was over 63 µg/mL in the assay on E. coli A-20341-1; 32 µg/mL in [2]; over 63 µg/mL in assay [3]; 63 µg/mL (≈ 261 µM) in the assay with Ent. cloacae A-9659; 16 µg/mL (≈ 66.3 µM) in the assay on Ps. aeruginosa A-9843A; 63 µg/mL (≈ 261 µM) in the assay on Proteus vulgaris A21559. For the same compound, the MIC in the assay on Proteus rettgeri A21203 is 32 µg/mL (≈ 133 µM); in [4] it was 63 µg/mL (≈ 261 µM).
Take `NC=NCC1=C(C(=O)O)N2C(=O)CC2S1` (stereo not drawn) [16 (6)]: the MIC in the assay on Ent. cloacae A-9656 stood at 63 µg/mL (≈ 277 µM); with Pr. morganii A-15153, 32 µg/mL (≈ 141 µM); in the assay on Str. pneumoniae A-9585, 2 µg/mL (≈ 8.8 µM); in the assay on K. pneumoniae A-15130, 125 µg/mL (≈ 550 µM); with Str. pyogenes A-9604, 4 µg/mL (≈ 17.6 µM); in the assay on Str. faecalis A-20688 it was 125 µg/mL (≈ 550 µM). Further, the MIC in the assay on E. coli A-15119 was 16 µg/mL (≈ 70.4 µM); in the assay on Pr. mirabilis A-9900, 16 µg/mL (≈ 70.4 µM); in the assay on Ser. marcescens A-20019, 63 µg/mL (≈ 277 µM); with Staph. aureus A-9537, 4 µg/mL (≈ 17.6 µM); in assay [1] it was 125 µg/mL (≈ 550 µM); in the assay with Ps. aeruginosa A-21213, over 125 µg/mL. Further, the MIC in the assay with E. coli A-20341-1 is 125 µg/mL (≈ 550 µM); in [2] it was 63 µg/mL; in [3], over 125 µg/mL; with Ent. cloacae A-9659, 63 µg/mL (≈ 277 µM); in the assay on Ps. aeruginosa A-9843A, 32 µg/mL (≈ 141 µM); in the assay with Proteus vulgaris A21559 it was 32 µg/mL (≈ 141 µM). Further, the values for the MIC (with Proteus rettgeri A21203; in [4]) were 32 µg/mL (≈ 141 µM) and 63 µg/mL (≈ 277 µM), respectively.
